Assay results from patent publication US12473328.
Where two headings read alike, the source gives them in different places.

Assays:
[1] = resin
[2] = disulfide bond; 44-membered ring; resin; 3 steps
[3] = crosslinker bond, 30-membered ring
[4] = disulfide bond, 20-membered ring

H-ACREGFLRCLHRPTVCNG-H2 gave a ring closure, conversion ([1]; crosslinker bond, 31-membered ring) of 99%.
H-ACSWPARCLHQDLCA-NH2 showed a ring closure, conversion [1, 3] of 99%.
H-ACYNEFGCEDFYDICA-NH2 showed a ring closure, conversion [1, 3] of 99%.
In the case of H-CRVPGDAHHADSLC-NH2, the ring closure, conversion ([1]; crosslinker bond, 49-membered ring) is reported as 99%, the ring closure, conversion ([1]; disulfide bond, 44-membered ring) is reported as 22% and the ring closure, crude yield [2] is reported as 22%.
H-CYFQNCPRG-NH2 showed a ring closure, conversion [1, 4] of 95%.
“H-KCNTATCATQRLANFLVHSSNFGPILPPTNVGSNTY-NH2” gave a ring closure, conversion [1, 4] of 99%.
For H-VRCPGAAHHADSLC-NH2, the ring closure, conversion ([1]; disulfide bond, 38-membered ring) was 99%.
For H-VRVPGCAHCADSLY-NH2, the ring closure, conversion ([1]; crosslinker bond, 19-membered ring) was 99%.
